Measurements taken from ChEMBL document CHEMBL1201862, “PubChem BioAssay data set” (2004).
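Grown in 96-well plates, cells were treated for 48 hours with each compound at five concentrations. Insufficient inhibition: endpoint recorded as highest concentration tested. The concentration for 50% growth inhibition is given as GI50.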 The source made the active and inactive calls. Rule as the data show it: active = GI50 up to about 1.1 µM and inactive = higher.

Legend:
Experiment in all cases: NCI anticancer screen, dose series, 48 h
[1] = test system: SN12C
[2] = test system: SK-MEL-28
[3] = test system: OVCAR-3
[4] = test system: A498
[5] = test system: A549
[6] = test system: RPMI-8226
[7] = test system: HOP-92
[8] = test system: Malme-3M
[9] = test system: MDA-MB-231
[10] = test system: 786-0
[11] = test system: UACC-257
[12] = test system: MDA-MB-435
[13] = test system: HOP-62
[14] = test system: SNB-75
[15] = test system: HL-60
[16] = test system: LOX IMVI
[17] = test system: SF-268
[18] = test system: RXF 393
[19] = test system: T47D
[20] = test system: Hs-578T

Measured: GI50

C=C1C(O)C2OC(=O)C(=C)C2C(OC(=O)/C(C)=C/C)CC2(C)OC2C2OC12 (stereo not given)
inactive: [1] 2.82 µM | [2] 20.4 µM | [3] 6.28 µM | [4] 15.3 µM | [5] 19.8 µM | [6] 2.58 µM | [7] 19.4 µM | [8] 10.3 µM | [9] 8.36 µM | [10] 6.31 µM | [11] 15.7 µM | [12] 5.74 µM | [13] 14.5 µM | [14] 10.4 µM | [15] 2.52 µM | [16] 6.68 µM | [17] 4.67 µM | [18] 4.85 µM | [19] 14.3 µM | [20] 20.7 µM

CCOc1ccc(/C(C=O)=C(\Cl)c2ccc(OC)cc2)cc1
inactive: [1] > 100 µM | [2] > 100 µM | [3] > 100 µM | [4] > 100 µM | [5] 18.2 µM | [6] 5.73 µM | [7] 69.3 µM | [8] > 70.5 µM | [9] > 100 µM | [10] > 100 µM | [11] 9.35 µM | [12] 9.4 µM | [13] 46.7 µM | [14] 36.6 µM | [15] 14.6 µM | [16] 14.2 µM | [17] > 100 µM | [18] > 100 µM | [19] 24.2 µM | [20] 34.4 µM

CCOC(=O)Nc1ccc2c(c1)N(C(=O)CCN(CC)CC)c1ccccc1S2 [ETHACIZINE]
inactive: [1] 28.6 µM | [2] 28.5 µM | [3] 30 µM | [4] 23.4 µM | [5] 34.3 µM | [6] 17.9 µM | [7] 18.9 µM | [8] 18.7 µM | [9] 26.1 µM | [10] 24.4 µM | [11] 16.3 µM | [12] 29 µM | [13] 33.9 µM | [14] 2.09 µM | [15] 18.9 µM | [16] 17.6 µM | [17] 27.8 µM | [18] 21.6 µM | [19] 27.4 µM | [20] 50.4 µM
